In series [1] the test system is Mus musculus. As to conditions: subchronic, oral, M/F.
Series [2] deals with Mus musculus. As to conditions: subchronic, oral, M/F, CD1, Hepatic.
In series [3] the test system is Mus musculus. The following applies: subchronic; duration: 90 days; oral; drinking water; M/F; CD1; immunological, hepatic.
For series [4], the system named is Rattus norvegicus. The following applies: acute.
For series [5], the system named is Canidae. As to conditions: chronic; duration: 1 years; oral; diet; M/F; Dog Other; kidney and liver toxicity.
For series [6], the system named is Canidae. The following applies: chronic; duration: 52 weeks; oral; diet; Dog Other; Kidney: Effects + Liver: Effects.
A further series has as its system Cavia porcellus. The following applies: acute, Guinea Pig; for LD50: dermal.
Series [7] deals with Mus musculus. As to conditions: for LD50: acute.
The subject of another series is Oryctolagus sp. As to conditions: for NOAEL: reproduction developmental, duration: 13 days, oral, gavage, New Zealand.
Series [8] has as its system Rattus norvegicus.
The subject of series [9] is Rattus norvegicus. The following applies: subchronic, oral, diet.
For series [10], the system named is Rattus norvegicus. As to the kind of experiment: LC0; higher = less toxic. The following applies: acute; inhalation.
A further series concerns Bird. As to conditions: oral, diet.
The mark [11] stands for this setting: drinking water, clinical serum chemistry (effects on erythrocytes and reduced humoral immune status).
The mark [12] stands for this setting: gavage, dyspnea, abnormal appearance, liver enlargement.
Where [13] appears, read: reproduction developmental, injection, Intraperitoneal, generation: F1.
Where [14] appears, read: subchronic, duration: 90 days, oral, diet, Fischer 344.
Setting [15] is: duration: 13 weeks, M/F, Fischer 344, Body Weight Changes: Body weight gain decrease + Food Consumption: decrease + Hematology: MCH decrease MCV decrease + Blood Chemistry: T-….

Molecules are shown by their SMILES. Values joined by “and” are separate entries in the source; they are usually repeats but may differ in a detail not shown here. Equal values may be shown once. Some results are limits rather than exact numbers.

With `ClCC(Cl)Cl` [1,1,2-Trichloroethane], the LOAEL in the series on Mus musculus [1] (setting [11]) was 44 mg/kg-day; with Rattus norvegicus [4] (duration: 4 hours, inhalation, whole body, M/F, Fischer 344, respiratory), 316 mg/m3. For the same molecule, the no observed adverse effect level (NOAEL) with Mus musculus [1] (setting [11]) turned out to be 3.9 mg/kg-day; with Mus musculus [2] (duration: 90 days, drinking water, Other), 3.9 mg/kg-day; in the series on Mus musculus [3] it was 3.9 mg/kg-day; in the series on Rattus norvegicus [4] (duration: 1 days, oral, gavage, M, Sprague-Dawley, hepatic), 46 mg/kg-day.
Take `Cc1cc(Cl)ccc1OCC(=O)O` [2-(4-Chloro-2-methylphenoxy)acetic acid]: in the series on Canidae [5], the LEL worked out at 0.75 mg/kg-day and the NOEL is 0.15 mg/kg-day. For the same molecule, in the series with Canidae [6], the NOEL is 0.15 mg/kg-day.
On to `Clc1ccc2ccccc2c1` [2-Chloronaphthalene], for which, in the series with Mus musculus [1] (setting [12]), the LOAEL stood at 600 mg/kg-day and the NOAEL amounted to 250 mg/kg-day. This molecule also came in with an NOAEL in the series with Mus musculus [2] (duration: 13 weeks, gavage, Respiratory) of 250 mg/kg-day.
For `CCCCC(CC)C(=O)O` (stereo not drawn) [2-Ethylhexanoic acid], the LD50 with Cavia porcellus is 6300 mg/kg and 5700 mg/kg and 4550 mg/kg; with Cavia porcellus (occlusive) it was 6500 mg/kg and ≥ 5000 mg/kg and ≤ 10000 mg/kg; in the series with Mus musculus [7] (injection, Intraperitoneal), 270 mg/kg; in the series on Mus musculus [7] (injection, subcutaneous) it was 910 mg/kg; in the series on Oryctolagus sp. (acute, dermal), 1260 mg/kg; in the series on Rattus norvegicus [8] (acute, dermal), above 2000 mg/kg. Further, the LD50 with Rattus norvegicus [8] (acute, oral, gavage) is ≥ 1600 mg/kg and ≤ 3200 mg/kg; in the series on Rattus norvegicus [8] (acute, oral, gavage, Sprague-Dawley), ≥ 1600 mg/kg and ≤ 3200 mg/kg. The LC50 in the series on Cavia porcellus (inhalation) was above 2.39 µg/mL; in the series with Rattus norvegicus [8] (acute, inhalation) it was above 0.015 µg/mL. For the same molecule, the “NOAEL (% diet)” value with Mus musculus [7] (repeat dose other, oral, diet) was 1; with Rattus norvegicus [8] (setting [14]) it was 0.1; with Rattus norvegicus [8] (subchronic, oral, diet, Fischer 344) it was 5. Besides, the NOAEL is 500 mg/kg-day in the series on Mus musculus [7] (reproduction developmental, injection, Intraperitoneal, NMRI, generation: F1); at most 1150 mg/kg-day in the series on Mus musculus [7] (setting [13]); 1600 mg/kg-day in the series with Mus musculus [7] (short-term, duration: 2 weeks, oral, gavage, F, B6C3F1); 800 mg/kg-day in the series on Mus musculus [7] (short-term, duration: 2 weeks, oral, gavage, M, B6C3F1); 25 mg/kg-day in the series on Oryctolagus sp. (F); 250 mg/kg-day in the series on Oryctolagus sp. (generation: F1). Further, the NOAEL in the series with Rattus norvegicus [8] (reproduction developmental, duration: 10 days, oral, gavage, F, Fischer 344) came out at 250 mg/kg-day; with Rattus norvegicus [8] (reproduction developmental, duration: 14 days, oral, drinking water, F, Wistar), 300 mg/kg-day; with Rattus norvegicus [8] (reproduction developmental, oral, Sprague-Dawley, generation: F1) it was 446 mg/kg-day; with Rattus norvegicus [8] (reproduction developmental, oral, drinking water, Wistar, generation: F0), 300 mg/kg-day; in the series with Rattus norvegicus [8] (reproduction developmental, oral, drinking water, Wistar, generation: F1), 100 mg/kg-day; with Rattus norvegicus [8] (reproduction developmental, oral, gavage, Wistar, generation: F1), 900 mg/kg-day. Besides, the NOAEL in the series on Rattus norvegicus [8] (short-term, duration: 2 weeks, oral, gavage, F, Fischer 344) came to 200 mg/kg-day; in the series on Rattus norvegicus [8] (short-term, duration: 2 weeks, oral, gavage, M, Fischer 344), 200 mg/kg-day; with Rattus norvegicus [8] (subchronic, duration: 13 weeks, oral, diet, Fischer 344), 300 mg/kg-day; with Rattus norvegicus [9] (setting [15]), 0.5%. In the series on Mus musculus [7] (setting [13]), this molecule registered an LOAEC of 1730 mg/kg-day. The LOAEL in the series on Rattus norvegicus [8] (reproduction developmental, oral, F, Sprague-Dawley) came to 446 mg/kg-day. Moreover, the “LOAEL (% diet)” value in the series with Rattus norvegicus [8] (setting [14]) came out at 0.5. In addition, the NOEL with Rattus norvegicus [9] (setting [15]) is 0.1%; in the series with Rattus norvegicus [9] (F, F344/CrjBR, Body Weight Changes: decrease + Food Consumption: decrease + Blood Chemistry: Cho increase , Alb increase + Absolute Organ Weight: Liver …), below 71 mg/kg-day; in the series on Rattus norvegicus [9] (M/F, F344/CrjBR, Body Weight Changes: decrease + Food Consumption: decrease + Blood Chemistry: Cho increase , Alb increase + Absolute Organ Weight: Liver …), below 0.1%. In the series with Rattus norvegicus [10], this molecule yielded an LC0 of 2.36 mg/L.
With `Cc1cc(C(C)(C)c2ccc(O)c(C)c2)ccc1O` [3,3'-Dimethylbisphenol A], the NOEL came out at 0.3% with Bird (short-term, duration: 1 month, M, Chicken, body weight); 0.3% in the series on Bird (subchronic, duration: 12 week, M/F, White leghorn chicken, mortality); 0.3% in the series with Bird (subchronic, duration: 12 week, M, White leghorn chicken, body weight + mortality). In addition, the LOEL with Bird (short-term, duration: 1 month, M, Chicken, mortality) was 0.3%; in the series with Bird (subchronic, duration: 12 week, M, White leghorn chicken, body weight), 0.3%.

By LOAEL is commonly meant the lowest dose or exposure tested at which an adverse effect was seen. What is called NOAEL is the highest dose or exposure tested at which no adverse effect was seen. What is called LD50 is the dose at which mortality reaches 50%. A word on the LC50: it is the concentration lethal to half of the exposed cells or organisms.
